According to EPA's ToxValDB 9.5 (doi:10.2903/j.efsa.2010.1719):
Converted amounts (≈) assume the structure as drawn. “And” between values parts separate entries of the source, which are not always exact repeats. Equal entries are not always repeated.

Legend:
Bibionidae = conditions: chronic/long-term; duration: 28 days
Mus musculus = conditions: acute; oral; M; mortality
Apis mellifera = conditions: acute; duration: 48 hours; dermal; mortality
Danio rerio = conditions: mortality
Folsomia candida = conditions: chronic/long-term; duration: 28 days
Colinus virginianus = conditions: for LD50: acute, oral, mortality
Daphnia magna = conditions: chronic/long-term; duration: 21 days; reproduction
Canidae = conditions: chronic; duration: 1 years; oral; Dog Other; histopathology: nonneoplastic

Question: For `CCCN(CC)CC1COC2(CCC(C(C)(C)C)CC2)O1` (stereo not drawn) [Spiroxamine], which NOEC (Bibionidae) is on record?
Answer: 5.6 mg/L

Question: And the LD50 (Mus musculus)?
Answer: 460 mg/kg-day

Question: And the LD50 (Apis mellifera)?
Answer: > 4.2 µg/piece

Question: And the LC50 (Danio rerio; acute, duration: 96 hours)?
Answer: 2.41 µg/mL (≈ 8.1 µM)

Question: And the NOEC (Danio rerio; chronic, duration: 230 days)?
Answer: 0.002 mg/L

Question: What about the NOAEL (Rattus norvegicus; acute, neurology) of the same compound?
Answer: 10 mg/kg-day

Question: What about the LD50 (Rattus norvegicus; acute, oral, F, mortality) of the same compound?
Answer: < 560 mg/kg-day

Question: And the NOEL (Rattus norvegicus; chronic)?
Answer: 9.19 mg/kg-day and 22.2 mg/kg-day

Question: And the NOEC (Folsomia candida)?
Answer: 32 mg/kg

Question: What about the LD50 (Colinus virginianus; diet) of the same compound?
Answer: > 358 mg/kg-day

Question: What about the LD50 (Colinus virginianus) of the same compound?
Answer: 565 mg/kg-day

Question: What about the NOEL (Colinus virginianus; reproduction developmental) of the same compound?
Answer: 2.02 mg/kg-day

Question: And the LC50 (Tagia sp.; acute, duration: 14 days, mortality)?
Answer: > 1000 mg/kg

Question: What about the NOEC (Tagia sp.; chronic/long-term, duration: 56 days) of the same compound?
Answer: > 3750 mg/kg

Question: What about the NOEC (Daphnia magna) of the same compound?
Answer: 0.034 mg/L

Question: And the NOEL (Anas platyrhynchos; reproductive)?
Answer: 10.6 mg/kg-day

Question: What about the LD50 (Anas platyrhynchos; short-term, oral, feed, mortality) of the same compound?
Answer: 874 mg/kg-day

Question: What about the NOAEL (Canidae) of the same compound?
Answer: 2.5 mg/kg-day
